The target in data set [1] is T1, Ah receptor (Mus musculus, UniProt P30561).
T1 construct: endogenous in cells; host or cells: H1L1.1C2 AhR ligand reporting cells
T1 sequence (P30561 10-848): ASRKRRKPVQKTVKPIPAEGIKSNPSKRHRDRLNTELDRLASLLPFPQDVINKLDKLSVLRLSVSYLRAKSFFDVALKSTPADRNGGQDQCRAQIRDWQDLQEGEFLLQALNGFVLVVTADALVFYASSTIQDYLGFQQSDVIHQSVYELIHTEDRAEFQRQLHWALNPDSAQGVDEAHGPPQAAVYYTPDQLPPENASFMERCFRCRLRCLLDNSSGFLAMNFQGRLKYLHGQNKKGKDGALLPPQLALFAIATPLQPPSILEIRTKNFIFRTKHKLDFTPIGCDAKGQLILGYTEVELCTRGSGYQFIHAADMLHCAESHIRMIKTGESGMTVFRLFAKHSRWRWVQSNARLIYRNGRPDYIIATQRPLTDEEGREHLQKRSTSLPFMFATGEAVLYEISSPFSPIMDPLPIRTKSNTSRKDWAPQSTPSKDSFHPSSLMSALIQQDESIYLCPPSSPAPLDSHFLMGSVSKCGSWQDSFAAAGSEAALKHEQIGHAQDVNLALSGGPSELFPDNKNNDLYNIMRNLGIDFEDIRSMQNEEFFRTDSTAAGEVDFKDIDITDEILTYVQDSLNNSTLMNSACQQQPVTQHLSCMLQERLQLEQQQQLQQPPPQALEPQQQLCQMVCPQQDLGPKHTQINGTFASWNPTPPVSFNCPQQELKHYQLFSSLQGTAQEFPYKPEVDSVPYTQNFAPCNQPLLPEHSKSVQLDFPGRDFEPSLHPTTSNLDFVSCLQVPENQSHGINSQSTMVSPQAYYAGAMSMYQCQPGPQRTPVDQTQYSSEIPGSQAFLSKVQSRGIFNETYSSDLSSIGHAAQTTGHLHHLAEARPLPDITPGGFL
The data set is described as follows: AhR ligand activity assay (luciferase reporter gene, H1L1.1C2 ligand reporting cells). The format is cell-based. The protocol: The ligand activity is determined most preferably by an activity assay described below. In brief, the ligand extracts are added to Ah receptor-containing ligand reporter cells. These cells are then incubated for 4 hours and the cells are lysed to release the formed luciferase. This enzyme typically is measured according to the kit sold by Promega (Madison, Wis., USA.). Luciferase activity is measured by light emission recorded by a luminometer. The luminometer readings are taken after a substrate solution is injected into a well.
The cell line H1L1.1C2 was maintained in a culture medium (DMEM+10% FBS) with G418 at a concentration of 400 μg/ml and incubated under an atmosphere of 37° C., 6% CO2, and 100% humidity. A 96 well sterile cell culture plate with about 30,000 cells per well in 200 μl of the culture medium without G418 was prepared and incubated for at least 12 hours before being dosed for ligand activity assay.
The solvents from the ligand activities were evaporated and the activities were reconstituted in DMSO and 1 μl of this solution was used to dose the ligand reporting cells in a well with 200 μl of culture medium. One row of the reporting cells in each assay plate was dosed with 1 μl of the DMSO solutions of a set of βNF standards to generate a standard dose response curve. The dosed cells were incubated for 6 hours under the same environment as they were maintained. The cells were washed twice with a 1×PBS (pH 6.9) after the incubation and the culture wells were scanned under an inverted microscope to detect any obvious cell number change due to dosing. The cells were lysed by adding 50 μl of a 1×cell lysis reagent (Promega, Madison, Wis., USA) and 10 μl of the lysate from each well were transferred into a corresponding well of a Microlite 2 plate (Dynex Technologies Inc., Chantilly, Va., USA) for luminometer reading. A MLX Microtiter Plate Luminometer (Dynex Technologies Inc.) was programmed to inject 50 μl of a luciferase substrate solution (Promega) into a well, read the light intensities in Relative Light Units (RLU's) generated by the luciferase reaction for 5 seconds after a one second delay following the injection, and take the average of the 5 second readings as a final RLU.
Dose response curves of RLU's vs. doses of βNF standards (ng in each assay well) from each plate were plotted and the RLU's generated by the samples were converted into βNF equivalent (BEQ) as ligand activity by consulting the βNF dose response curve generated from the same plate. Data were reported as ligand activity (in BEQ) vs. treatments or fractions from a purification procedure.
For orientation: Reporter assays use an easily measured gene product as a stand-in for the process of interest.

Data set [2] addresses T1, Ah receptor. The data set is described as follows: Reduction with NaBH4, phases assayed for biological activity. The format is cell-based. The settings on record: saturated NaBH4 in ethanol, overnight, room temperature; data not shown. The protocol:
Specified quantity of the compound was pipetted into a glass via for reaction and the solvents were evaporated. A saturated solution (100 μl) of NaBH4 in ethanol (200 proof, Aaper Alcohol and Chemical Co. Shelbyville, Ky., U.S.A.) was added to each reaction tube. The mixture was incubated overnight at room temperature and stopped by adding 200 μl of water. The reactions were extracted with 200 μl of chloroform twice and the chloroform phases were pooled. The solvents from both aqueous and chloroform phases were evaporated and both phases were assayed for biological activities. The chloroform phase was analyzed with electron impact mass spectroscopy as was a blank treated identically but containing no isolate.

The nature of data set [3]: Solubility and stability characterisation of the ligand preparation. It counts as physicochemical. The protocol:
The preferred ligand preparation described below can be characterized by its solubility. The ligand is extractable from tissue by 80% methanol/20% water. After the boiling and acid treatment, the ligand is extractable in chloroform.
The ligand preparation is unstable in base but stable in up to two normal acid for at least 24 hours. The preparation is stable to heating at 37° C. overnight (16 hours) and at 100° C. for 24 hours.

The target in data set [4] is T1, Ah receptor. The data set can be described thus: Base treatment followed by ligand activity assay. It counts as cell-based. Conditions: 0.1 N KOH, 37° C., overnight. The protocol: An aliquot of methanolic extracts of about 4 ng BEQ was transferred into a cleaned glass vial and the solvents were evaporated. A solution (200 ul) of 0.1 N KOH in water was added into the vial. The vials were incubated at 37° C. overnight. After the incubation, the tubes were cooled down and neutralized slowly with HCl. The treatment mixtures were extracted with 200 μl of chloroform. Chloroform and aqueous phases were separated and the solvents were evaporated. DMSO (10 μl) was added to each tube for activity assay. βNF and blank extracts were treated the same way as for the sample.

Data set [5] concerns the target T1, Ah receptor. The data set is described as follows: Base hydrolysis and methylation, products assayed for biological activity. The format is cell-based. The settings on record: same manipulations as for the ligand.
Method: To 2 μl of methanol with 3 ng BEQ of the sample, 38 μl of methanol of 10 μl of a 0.5 mm KOH in water were added and mixed. The reaction was incubated at 37° C. for 2 hours and stopped by adding 10 μl of 0.5 mmolar HCl in water to bring pH to around 5.0. To the reaction mix, 30 μl of water, 10 μl of methanol, and 50 μl of chloroform were added and mixed. The chloroform phase was separated and kept after centrifugation of the mixture. The chloroform extraction was repeated and the two chloroform phases were pooled. The chloroform phase was split into two parts, one for biological assay and the other for methylation. The same manipulations were performed for 3 ng of βNF in 2 μl of methanol and 2 μl of methanol as controls.
The solvents were evaporated and the products were assayed side by side with the hydrolysis products without methylation.
Data set [6] has as its target T1, Ah receptor. The data set can be described thus: Heat treatment followed by ligand activity assay. It counts as cell-based. The settings on record: 100° C. water bath, 30 minutes. The protocol:
The methanolic extracts either in methanol or DMSO in a cleaned glass vials were heated in a 100° C. water bath for 30 minutes and the vials were cooled to room temperature. The extracts in the solvents were directly assayed as they were to determine the activities.

With `COc1cc(-c2cc(=O)c3ccccc3o2)ccc1[N+](=O)[O-]` [3′-methoxy-4′-nitroflavone], the “antagonism of the reporter gene response to ITE” value in data set [1] (AhR antagonist, data not shown) is given as “block the reporter gene response to the compound in a dose dependent fashion”.
Consider `COC(=O)c1csc(C(=O)c2c[nH]c3ccccc23)n1` [ITE, 2-(1′-H-indole-3′-carbonyl)-thiazole-4-carboxylic acid methyl ester], for which the “biological activity of synthetic compound compared with the isolate” value in data set [1] is “the same biological activity”. Further, in data set [1] (dose response curves after 4 hours of incubation, FIG. 7B), the “reporter gene potency relative to βNF” value was “about five”. Further, the “biological activity after reduction with NaBH4” value in data set [2] is on record as “completely destroyed the biological activity”. In addition, in data set [3], the “extractability from tissue by 80% methanol/20% water” value was “extractable”, the stability in base result is listed as “unstable” and the “time stable in up to two normal acid” value is reported as “at least 24 hours”. In addition, the “stability to heating at 100° C.” value in data set [3] (24 hours) is on record as “stable”. In data set [3] (after the boiling and acid treatment), the extractability in chloroform result is on record as “extractable”. Also, the “stability to heating at 37° C.” value in data set [3] (overnight (16 hours)) was “stable”.
For `O=c1cc(-c2ccccc2)oc2ccc3ccccc3c12` [βNF, β-Naphthoflavone], the “response of ligand activity to base treatment” value in data set [4] is given as “did not respond”. Also, in data set [1] (0.05 ng of βNF per assay well (200 μl medium), 96 well format), the “induction over vehicle control” value was “two to three”. Also, the “amount generating a distinguishable signal” value in data set [1] (per assay well, 96 well format) came out at 0.01 ng. Besides, the “change in biological activity after hydrolysis and methylation manipulations” value in data set [5] was “no change”. Also, in data set [6], the “response of ligand activity to heat treatment” value is “did not respond”.
